A short description of series [1]: Cytotoxicity against human HuH7 cells assessed as cell viability by alamarblue assay. Conditions: huh-7. The series is classed as cell-based. For orientation: The colour change of resazurin is a common sign of viable cells or microbes.
Series [2] concerns Plasmodium berghei. The series is described as follows: Ratio of primaquine IC50 to compound IC50 against liver stage of Plasmodium berghei sporozoites expressing firefly luciferase infected in human Huh7 cells. The series is classed as functional, Huh-7.
Another series concerns Plasmodium falciparum. The series is described as follows: Antiplasmodial activity against erythrocyte stage of Plasmodium falciparum W2 assessed as growth inhibition after 48 hrs by flow cytometry. Type of series: functional, organism-based. The following applies: W2, 48 h.
Series [3] relates to Plasmodium berghei. The series is described as follows: Antiplasmodial activity against liver stage of Plasmodium berghei sporozoites expressing firefly luciferase infected in human Huh7 cells assessed as inhibition of parasite development treated 1 hr prior to infection followed by compound replenisment at 24 hrs post-infection measured 48 hrs after infection by bioluminescence analysis. Type of series: functional, organism-based. Conditions: Huh-7, Liver.

In general, IC50 refers to the point on the concentration scale where inhibition reaches its midpoint.

`COc1ccc(/C=C/C(=O)NCCCC(C)Nc2cc(OC)cc3cccnc23)cc1` (centres undefined): the Activity entry in series [1] is listed as “Non-toxic”. The “Ratio IC50” value in the series with Plasmodium berghei [2] was more than 2. Besides, in the series with Plasmodium falciparum, the IC50 is not below 10 µM.
In the case of `COc1cc(NC(C)CCCNC(=O)/C=C/c2ccccc2)c2ncccc2c1` (centres undefined), the Activity entry in series [1] is “Non-toxic”. Besides, the “Ratio IC50” value in the series with Plasmodium berghei [2] is reported as more than 2. In addition, the 50% inhibitory concentration (IC50) in the series with Plasmodium falciparum is not below 10 µM; in the series with Plasmodium berghei [3] it was 2.01 µM.
The like results for `COc1cc(NC(C)CCCNC(=O)/C=C/c2ccc(C)cc2)c2ncccc2c1` (centres undefined) were, in that order, “Non-toxic”, more than 2, not below 10 µM and 2.13 µM.
The like results for `COc1cc(NC(C)CCCNC(=O)/C=C/c2ccc(C(C)C)cc2)c2ncccc2c1` (centres undefined) were, in that order, “Non-toxic”, more than 2, 4.84 µM and 1.54 µM.
Take `COc1cc(NC(C)CCCNC(=O)/C=C/c2cccc(F)c2)c2ncccc2c1` (centres undefined): the Activity entry in series [1] is reported as “Non-toxic”. For the same compound, the “Ratio IC50” value in the series with Plasmodium berghei [2] is more than 2. Further, the IC50 was not below 10 µM with Plasmodium falciparum and 1.63 µM with Plasmodium berghei [3].
`COc1cc(NC(C)CCCNC(=O)/C=C/c2ccc(F)cc2)c2ncccc2c1` (centres undefined): the Activity entry in series [1] is “Non-toxic”. Further, the “Ratio IC50” value in the series on Plasmodium berghei [2] is more than 2. Besides, the IC50 in the series with Plasmodium falciparum was not below 10 µM; with Plasmodium berghei [3], 2.33 µM.
For `COc1cc(NC(C)CCCNC(=O)/C=C/c2ccc(Cl)cc2)c2ncccc2c1` (centres undefined), the Activity entry in series [1] was “Non-toxic”. Besides, in the series with Plasmodium berghei [2], the “Ratio IC50” value is given as more than 2. The values for the IC50 in the series on Plasmodium falciparum and with Plasmodium berghei [3] were not below 10 µM and 2.39 µM, respectively.
Take `COc1cc(NC(C)CCCNC(=O)/C=C/c2ccc(Br)cc2)c2ncccc2c1` (centres undefined): the Activity entry in series [1] is listed as “Non-toxic”. Also, the “Ratio IC50” value with Plasmodium berghei [2] is on record as more than 2. Also, the values for the IC50 in the series on Plasmodium falciparum and with Plasmodium berghei [3] were not below 10 µM and 1.38 µM, respectively.
For `COc1cc(NC(C)CCCNC(=O)/C=C/c2ccccc2[N+](=O)[O-])c2ncccc2c1` (centres undefined), the Activity result in series [1] is “Non-toxic”. Also, the “Ratio IC50” value in the series on Plasmodium berghei [2] is more than 2. For the same compound, the IC50 is not below 10 µM in the series on Plasmodium falciparum and 2.36 µM with Plasmodium berghei [3].
On to `COc1cc(NC(C)CCCNC(=O)/C=C/c2cccc([N+](=O)[O-])c2)c2ncccc2c1` (centres undefined), for which the Activity result in series [1] was “Non-toxic”. Also, the “Ratio IC50” value in the series with Plasmodium berghei [2] was more than 2. Moreover, the IC50 in the series on Plasmodium falciparum is not below 10 µM; in the series on Plasmodium berghei [3], 2.12 µM.
The like results for `COc1cc(NC(C)CCCNC(=O)/C=C/c2ccc([N+](=O)[O-])cc2)c2ncccc2c1` (centres undefined) were, in that order, “Non-toxic”, more than 2, not below 10 µM and 2.24 µM.
`C[C@@H]1CC[C@H]2[C@@H](C)C(=O)O[C@@H]3O[C@@]4(C)CC[C@@H]1[C@]32OO4` [ARTEMISININ]: in the series on Plasmodium falciparum, the IC50 is 0.00564 µM.

Source of the values: ChEMBL document CHEMBL3217417, “PRIMACINS, N-cinnamoyl-primaquine conjugates, with improved liver-stage antimalarial activity” (Medchemcomm, 2012).
